Assay results as given in PubChem BioAssay AID1926 (The Scripps Research Institute Molecular Screening Center, 2009).
Activity calls are given as the source filed them.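 The calls were made as follows: active = IC50 half-maximal inhibitory concentration at or below 10 µM; inactive = IC50 above 10 µM.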

Biological target: VIM-2 metallo-beta-lactamase (Pseudomonas aeruginosa) (UniProt Q932Y6)
Assay: VIM-2 CCF2 hydrolysis inhibition, assay artifact filter – biochemical, FRET readout, CCF2 substrate, artefact control for selective VIM-2 inhibitor project, dose response (AID 1926)
Conditions: purified VIM-2, CCF2 FRET substrate hydrolysis

Row | SMILES | IC50
1 | CCCc1cc(=O)oc2c3c(cc(OCC(=O)N4CCC[C@H]4C(=O)O)c12)OC(C)(C)CC3 | 1.73 µM
2 | O=P(O)(O)c1ccccc1OCCCCCOc1ccccc1P(=O)(O)O | 0.862 µM
3 | CCCCn1c(-c2sccc2C)n[nH]c1=S | 0.961 µM
4 | O=C(CSc1nnc(NC(=O)c2cc(Br)ccc2Cl)s1)NCC1CCCO1 (centres undefined) | 5.87 µM
5 | CC(C)Cn1c(-c2ccco2)n[nH]c1=S | 4.37 µM
6 | Cc1ccc(-c2n[nH]c(=S)n2-c2ccccc2)cc1 | inactive
7 | S=c1[nH]nc(-c2ccc3ccccc3n2)n1-c1ccc2c(c1)OCCO2 | 7.92 µM
8 | CCCn1c(C(C)C)n[nH]c1=S | 3.48 µM
9 | Cc1cccc(-n2c(C)n[nH]c2=S)c1C | 8.27 µM
10 | CCCCn1c(-c2nn(C)cc2Cl)n[nH]c1=S | 1.62 µM
11 | O=C1Nc2cc(C(=O)NCCCN3CCOCC3)ccc2S/C1=C/c1ccccc1F | inactive
12 | S=c1[nH]nc(-c2ccco2)n1Cc1ccccc1 | 3.51 µM
13 | S=c1[nH]nc(-c2cccs2)n1C1CCCCC1 | 1.31 µM
14 | O=C(CSc1nnc(NC(=O)c2ccccc2[N+](=O)[O-])s1)NCc1ccco1 | 2.62 µM
15 | CSc1nc(SCC(=O)O)c2c3c(sc2n1)COC(C)(C)C3 | 5.35 µM
16 | CC1=C(C(=O)O)N2C(=O)C(NC(=O)c3nn(C)cc3[N+](=O)[O-])C2SC1 (centres undefined) | 8.54 µM
17 | Cc1n[nH]c(C)c1CCCCOc1ccc([N+](=O)[O-])cc1 | 5.26 µM
18 | O=c1[nH]c2c(s1)C(c1cccnc1)C1C3CCC(C3)C1S2 (centres undefined) | 0.0339 µM
19 | O=C1Nc2cc(C(=O)N3CCC(N4CCCCC4)CC3)ccc2S/C1=C\c1ccccc1 | 4.51 µM
20 | Cc1c(C)c2c(OCC(=O)N3CCC[C@H]3C(=O)O)cc3c(c2oc1=O)CCC(C)(C)O3 | 0.525 µM
21 | COc1ccc(-c2cc(C(F)(F)F)nc(N3CCN(C)CC3)n2)cc1 | > 59.6 µM (inactive)
22 | S=c1[nH]nc(-c2ccccc2)n1Cc1ccccc1 | 8.3 µM
23 | S=c1[nH]nc(C2CC2)n1Cc1ccco1 | 3.76 µM
24 | O=C(c1ccco1)N1N=C(c2ccc(Cl)cc2)CC1c1ccco1 (centres undefined) | 1.61 µM
25 | CCn1c(-c2nn(-c3ccccc3)ccc2=O)n[nH]c1=S | 8.57 µM
26 | O=P(O)(O)c1ccccc1OCc1ccccc1 | 0.689 µM

Row | SMILES | IC50
27 | CCOC(=O)N=S(N)(=O)c1ccccc1 (centres undefined) | 4.85 µM
28 | Cc1c(OCC(=O)N2CCC[C@@H]2C(=O)O)ccc2c3c(c(=O)oc12)CCC3 | 5.43 µM
29 | O=C(O)c1c(C(=O)O)c(-c2ccc(Br)cc2)n2c1CSC2 | 1.51 µM
30 | Cc1c(C)c2c(OCC(=O)N[C@@H](C)C(=O)O)cc3c(c2oc1=O)CCC(C)(C)O3 | 1.54 µM
31 | S=c1[nH]nc(-c2cccs2)n1Cc1ccccc1 | 0.889 µM
32 | O=C(O)c1ccccc1Sc1ncnc2sc3c(c12)CCC3 | 3.91 µM
33 | Cc1ccccc1C(=O)Nc1nnc(SCC(=O)NCc2ccco2)s1 | 1.12 µM
34 | COc1ccccc1C(=O)Nc1nnc(SCC(=O)NCc2ccco2)s1 | 2.61 µM
35 | CCc1cc(=O)oc2c(C)c(OCC(=O)N3CCC[C@@H]3C(=O)O)ccc12 | 8.96 µM
36 | COc1ccc2[nH]c(C(=O)O)c(CCN3C(=O)c4ccc(C(=O)O)cc4C3=O)c2c1 | 0.433 µM
37 | Cc1cc(OCc2cc(C(=O)O)oc2C)c2c3c(c(=O)oc2c1)CCCC3 | 0.582 µM
38 | COc1cc2c(cc1OC)C(C)N(C(=O)c1nccnc1C(=O)O)CC2 (centres undefined) | 5.74 µM
39 | COc1ccccc1-n1c(-c2ccco2)n[nH]c1=S | 5.21 µM
40 | CCCCc1cc(=O)oc2c3c(cc(OCC(=O)N4CCC[C@H]4C(=O)O)c12)OC(C)(C)CC3 | 8.93 µM
41 | Cc1cc(=O)oc2c3c(cc(OCC(=O)N[C@@H](Cc4ccccc4)C(=O)O)c12)OC(C)(C)CC3 | 7.51 µM
42 | Cc1cccc(C2c3[nH]c4ccccc4c3CCN2C(=O)c2cc(CC(C)C)[nH]c(=O)n2)n1 (centres undefined) | 2.74 µM
43 | CC1CCCC(C)N1C(=O)CSc1nnc(NC(=O)c2cccs2)s1 (centres undefined) | 3.92 µM
44 | O=C(CSc1nnc(NC(=O)c2c(F)cccc2F)s1)NCc1ccccc1 | 3.62 µM
45 | CCCc1cc(=O)oc2c3c(cc(OCC(=O)N[C@@H](C)C(=O)O)c12)OC(C)(C)CC3 | 6.97 µM
46 | Cc1cc(OCC(=O)N2CCC[C@@H]2C(=O)O)c2c(C)c(C)c(=O)oc2c1 | 5.31 µM
47 | O=C(CSc1nnc(NC(=O)c2ccccc2F)s1)NCc1ccc(F)cc1 | 3.65 µM
48 | COCC(=O)Nc1nnc(SCC(=O)NCc2cccs2)s1 | 3.62 µM
49 | S=c1[nH]nc(Cn2c(-c3ccccn3)nc3ccccc32)n1-c1ccc2c(c1)OCCO2 | 4.03 µM
50 | CSC[C@H](NC(=O)COc1cc2c(c3oc(=O)c(C)c(C)c13)CCC(C)(C)O2)C(=O)O | 4.21 µM
51 | O=C(CSc1nnc(NC(=O)c2ccccc2)s1)NCc1ccco1 | 4.63 µM
52 | O=C(CSc1nnc(NC(=O)c2cccc(F)c2)s1)NCc1ccco1 | 4.55 µM

Row | SMILES | IC50
53 | CC(C)(C)C(=O)Nc1nnc(CSCc2ccccc2F)s1 | 1.96 µM
54 | O=C(O)C1Sc2[nH]c(=O)sc2C2c3cc(Cl)ccc3OC(=O)C12 (centres undefined) | > 59.6 µM (inactive)
55 | O=C(O)C(NC(=O)c1ccccc1)=C(Cl)Cl | 7.85 µM
56 | CCCC(=O)Nc1nnc(SCC(=O)NCc2cccs2)s1 | 4.68 µM
57 | CCOC(=O)c1[nH]c(C(=O)O)c(CCC(=O)OC)c1C | 5 µM
58 | CC(=O)c1ccc(-c2ccc(Cn3c(C)nc4cc(N)c(C)nc43)cc2)cc1 | 6.28 µM
59 | S=c1[nH]nc(-c2ccccc2)n1CC1CCCO1 (centres undefined) | 4.15 µM
60 | Cc1ccc(-c2c(C(=O)O)c(C(=O)O)c3n2CSC3)cc1 | 2.95 µM
61 | CCCCn1c(-c2ccoc2C)n[nH]c1=S | 4.25 µM
62 | CC(C)(C)CC(=O)Nc1nnc(SCC(=O)NCc2cccs2)s1 | 6.64 µM
63 | C=C(c1cccc2ccccc12)P(=O)(O)O | 2.17 µM
64 | O=c1c2ccccc2cnn1Cc1n[nH]c(=S)n1C1CC2CCC1C2 (centres undefined) | 9.66 µM
65 | COc1cccc(-n2c(CNC(=O)OC(C)(C)C)n[nH]c2=S)c1 | 7.83 µM
66 | NC(=O)SCC(=O)Nc1ccccc1C(=O)O | 5.27 µM
67 | CCN(CC)C(=O)CSc1nc2ccc(NC(=O)CSc3nccn3C)cc2s1 | 3.61 µM
68 | CC(C)(C)c1ccc(COc2ccsc2C(=O)O)cc1 | 5.71 µM
69 | O=c1[nH]c(SCc2n[nH]c(=S)n2-c2ccccc2)nc2sc3c(c12)CCC3 | 4.2 µM
70 | O=[N+]([O-])c1ccc(-c2ccccc2)c([As](=O)(O)O)c1 | 0.245 µM
71 | Cn1c(-c2sccc2OCc2ccc(Cl)cc2Cl)n[nH]c1=S | 0.774 µM
72 | Cc1c(Cl)c(-c2n[nH]c(=S)n2-c2ccc(F)cc2)nn1C | 6.25 µM
73 | CCCCn1c(-c2nn(C)c(C)c2Cl)n[nH]c1=S | 1.99 µM
74 | C=C(C)Cn1c(-c2cccs2)n[nH]c1=S | 1.39 µM
75 | O=C(O)c1ccccc1C(=O)c1cccc2ccccc12 | 3.82 µM
76 | Cc1ccc(S(=O)(=O)n2[nH]c(=O)cc2NC(=O)c2cccs2)cc1 | 0.12 µM
77 | Cn1ccnc1SCC(=O)Nc1ccc2nc(SCC(=O)NC3CC3)sc2c1 | 9 µM
78 | C=CCn1c(C2CC2)n[nH]c1=S | 8.36 µM

Row | SMILES | IC50
79 | O=C(O)CC/C(=C\c1cc([N+](=O)[O-])ccc1Cl)c1nc2ccccc2s1 | 4.17 µM
80 | Cc1cc(=O)oc2c3c(cc(OCC(=O)N4CCC[C@H]4C(=O)O)c12)OC(C)(C)CC3 | 4.93 µM
81 | CC(C)(C)c1ccc(-c2n[nH]c(=S)n2CCCN2CCOCC2)cc1 | 6.73 µM
82 | CC1CCCCC1n1c(-c2cccnc2)n[nH]c1=S (centres undefined) | 4.05 µM
83 | COCC(C)NC(=O)c1cc2cccc([N+](=O)[O-])c2[nH]1 (centres undefined) | 6.15 µM
84 | S=c1[nH]nc(-c2ccccc2)n1C1C=CCCC1 (centres undefined) | 4.99 µM
85 | Cc1nn(CCc2n[nH]c(=S)n2-c2cccc(Cl)c2)c(C)c1[N+](=O)[O-] | 4.31 µM
86 | S=c1[nH]nc(-c2ccco2)n1-c1cccc2ccccc12 | 3.97 µM
87 | O=C(O)c1[nH]c2ccc(Cl)cc2c1CCN1C(=O)c2ccccc2C1=O | 0.374 µM
88 | O=Cc1c(NCc2ccc(Cl)cc2)c2ccccc2[nH]c1=O | 9.8 µM
89 | Cc1cc(C)n(-c2nc(SCC(=O)O)c3c4c(sc3n2)COC(C)(C)C4)n1 | 9.07 µM
90 | O=C(O)Cn1cccc1C(=O)c1ccccc1 | 4.04 µM
91 | O=C(CCN1C(=O)/C(=C/c2ccccc2F)SC1=S)NCCCn1ccnc1 | 4.49 µM
92 | CC(C)(C)C(=O)Nc1nnc(SCC(=O)NCc2cccs2)s1 | 0.874 µM
93 | O=C(CSc1nnc(NC(=O)C2CCCCC2)s1)NCc1ccco1 | 2.23 µM
94 | S=c1[nH]nc(C2CC2)n1Cc1ccccc1 | 0.94 µM
95 | Cc1c(C)c2ccc(OCC(=O)N3CCC[C@@H]3C(=O)O)c(C)c2oc1=O | 2.09 µM
96 | COc1ccc(-c2n[nH]c(=S)n2-c2ccc3c(c2)OCCO3)cc1OC | 2.62 µM
97 | Cc1cccc(C(=O)Nc2nnc(SCC(=O)NCc3ccco3)s2)c1 | inactive
98 | O=C(CSc1nnc(NC(=O)C2CC2)s1)NCc1ccccc1Cl | 4.62 µM
99 | COc1ccccc1-c1n[nH]c(=S)n1Cc1ccco1 | 6.53 µM
100 | Cn1c(-c2sccc2OCc2ccccc2)n[nH]c1=S | 1.2 µM
101 | O=C(O)c1[nH]c2ccc(Br)cc2c1CCN1C(=O)c2cccc([N+](=O)[O-])c2C1=O | 0.716 µM
102 | Fc1ccccc1-c1n[nH]c(=S)n1Cc1ccccc1 | 4.14 µM
103 | Cc1cc(C(=O)OCC(=O)NC(=O)c2cccn2C)c2ccccc2n1 | 2.3 µM
104 | Cc1ccc(-n2c(-c3nn(C)c(C)c3Cl)n[nH]c2=S)cc1 | 3.72 µM
